Each compound was assayed against T1, human MGL from HeLa cells (Homo sapiens, UniProt Q99685) (assay: In vitro MGL activity assay: [glycerol-1,3-3H]-oleyl glycerol cleavage by MGL from HeLa cells). Details: 300 nM [Glycerol-1,3-3H]-oleyl glycerol, one hour.
T1 construct: combining endogenously expressed MGL from HeLa cells with test compounds; endogenous in cells; host or cells: HeLa cells / cell homogenates
T1 sequence (Q99685 1-303): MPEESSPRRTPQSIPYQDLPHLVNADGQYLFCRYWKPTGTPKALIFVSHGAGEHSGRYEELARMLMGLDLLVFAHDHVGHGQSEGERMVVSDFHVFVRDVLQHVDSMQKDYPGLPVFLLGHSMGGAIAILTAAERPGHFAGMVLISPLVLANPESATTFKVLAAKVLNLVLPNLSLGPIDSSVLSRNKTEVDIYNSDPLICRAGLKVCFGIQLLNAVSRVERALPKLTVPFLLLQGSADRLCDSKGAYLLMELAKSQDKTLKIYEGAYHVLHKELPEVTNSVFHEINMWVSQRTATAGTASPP
Type: biochemical
Source text: MGL is the predominant hydrolase in HeLa cells/cell homogenates.

| Structure (SMILES) | IC50 [nM] |
| --- | --- |
| C[C@H]1c2nn(C)c(-c3cc(F)c(F)c(F)c3)c2CCN1C(=O)c1cnc2c(c1)OCCN2 [Example 571, 3,4-Dihydro-2H-pyrido[3,2-b][1,4]oxazin-7-yl-[(7S)-2,7-dimethyl-3-(3,4,5-trifluorophenyl)-5,7-dihydro-4H-pyrazolo[3,4-c]pyridin-6-yl]methanone] | 12.7 |
| C[C@H]1c2nn(C)c(-c3cccc4c3OCC4)c2CCN1C(=O)c1ccc2ncccc2c1 [Example 539, [(7S)-3-(2,3-Dihydrobenzofuran-7-yl)-2,7-dimethyl-5,7-dihydro-4H-pyrazolo[3,4-c]pyridin-6-yl]-(6-quinolyl)methanone] | 55.2 |
| C[C@H]1c2nn(C)c(-c3cc(F)c(F)c(F)c3)c2CCN1C(=O)c1ccc2nncn2c1 [Example 439, [(7S)-2,7-Dimethyl-3-(3,4,5-trifluorophenyl)-5,7-dihydro-4H-pyrazolo[3,4-c]pyridin-6-yl]-([1,2,4]triazolo[4,3-a]pyridin-6-yl)methanone] | 9270 |
| C[C@H]1c2nn(C)c(-c3cc(F)c(F)c(F)c3)c2CCN1C(=O)c1ccnc2[nH]cc(F)c12 [Example 605, [(7S)-2,7-Dimethyl-3-(3,4,5-trifluorophenyl)-5,7-dihydro-4H-pyrazolo[3,4-c]pyridin-6-yl]-(3-fluoro-1H-pyrrolo[2,3-b]pyridin-4-yl)methanone] | 1.1 |
| C[C@H]1c2nn(C)c(-c3cc(F)c(F)c(F)c3)c2CCN1C(=O)c1c[nH]c2c(F)cccc12 [Example 359, [(7S)-2,7-Dimethyl-3-(3,4,5-trifluorophenyl)-5,7-dihydro-4H-pyrazolo[3,4-c]pyridin-6-yl]-(7-fluoro-1H-indol-3-yl)methanone] | 31 |
| C[C@H]1c2nn(C)c(-c3cc(F)c(F)c(F)c3)c2CCN1C(=O)c1cccc2c1OC1(CC1)CN2 [Example 604, [(7S)-2,7-Dimethyl-3-(3,4,5-trifluorophenyl)-5,7-dihydro-4H-pyrazolo[3,4-c]pyridin-6-yl]-spiro[3,4-dihydro-1,4-benzoxazine-2,1′-cyclopropane]-8-yl-methanone] | 102 |
| CC(C)Oc1cccc(-c2c3c(nn2C)[C@H](C)N(C(=O)c2ccc4ncccc4c2)CC3)c1 [Example 498, [(7S)-3-(3-Isopropoxyphenyl)-2,7-dimethyl-5,7-dihydro-4H-pyrazolo[3,4-c]pyridin-6-yl]-(6-quinolyl)methanone] | 361 |
| C[C@H]1c2nn(C)c(-c3ccc(OC(F)(F)F)cc3)c2CCN1C(=O)c1ccc2ncccc2c1 [Example 500, [(7S)-2,7-Dimethyl-3-[4-(trifluoromethoxy)phenyl]-5,7-dihydro-4H-pyrazolo[3,4-c]pyridin-6-yl]-(6-quinolyl)methanone] | 75.7 |
| C[C@H]1c2nn(C)c(-c3cc(F)c(F)c(F)c3)c2CCN1C(=O)c1ccc2cncnc2c1 [Example 480, [(7S)-2,7-Dimethyl-3-(3,4,5-trifluorophenyl)-5,7-dihydro-4H-pyrazolo[3,4-c]pyridin-6-yl]-quinazolin-7-yl-methanone] | 207 |
| Cc1ncc2ccc(C(=O)N3CCc4c(nn(C)c4-c4cc(F)c(F)c(F)c4)[C@@H]3C)cn12 [Example 418, [(7S)-2,7-Dimethyl-3-(3,4,5-trifluorophenyl)-5,7-dihydro-4H-pyrazolo[3,4-c]pyridin-6-yl]-(3-methylimidazo[1,5-a]pyridin-6-yl)methanone] | 14.6 |
| Cc1ccc2nc(C)c(C(=O)N3CCc4c(nn(C)c4-c4cc(F)c(F)c(F)c4)[C@@H]3C)n2c1 [Example 405, (2,6-Dimethylimidazo[1,2-a]pyridin-3-yl)-[(7S)-2,7-dimethyl-3-(3,4,5-trifluorophenyl)-5,7-dihydro-4H-pyrazolo[3,4-c]pyridin-6-yl]methanone] | 280 |
| C[C@H]1c2nn(C)c(-c3cc(F)c(F)c(F)c3)c2CCN1C(=O)c1ccc(F)c2[nH]ccc12 [Example 354, [(7S)-2,7-Dimethyl-3-(3,4,5-trifluorophenyl)-5,7-dihydro-4H-pyrazolo[3,4-c]pyridin-6-yl]-(7-fluoro-1H-indol-4-yl)methanone] | 2.23 |

Same assay, conditions: 300 nM [Glycerol-1,3-3H]-oleyl glycerol, one hour incubation

| Structure (SMILES) | IC50 [nM] |
| --- | --- |
| CC1c2nn(C)c(-c3cccc4ccn(C)c34)c2CCN1C(=O)c1ccc2ncccc2c1 (centres unmarked) [Example 253, (2,7-Dimethyl-3-(1-methyl-1H-indol-7-yl)-2,4,5,7-tetrahydro-6H-pyrazolo[3,4-c]pyridin-6-yl)(quinolin-6-yl)methanone] | 1610 |
| COc1ccnc(C(=O)N2CCc3c(nn(C)c3-c3cc(F)c(F)c(F)c3)[C@@H]2C)c1Cl [Example 317, (3-Chloro-4-methoxy-2-pyridyl)-[(7S)-2,7-dimethyl-3-(3,4,5-trifluorophenyl)-5,7-dihydro-4H-pyrazolo[3,4-c]pyridin-6-yl]methanone] | 30.1 |
| CC1c2nn(C)c(-c3cc(F)cc(F)c3)c2CCN1C(=O)c1cc2ccccc2cn1 (centres unmarked) [Example 160, (3-(3,5-Difluorophenyl)-2,7-dimethyl-2,4,5,7-tetrahydro-6H-pyrazolo[3,4-c]pyridin-6-yl)(isoquinolin-3-yl)methanone] | 260 |
| C[C@@H]1c2nn(C(F)F)c(-c3cc(F)c(F)c(F)c3)c2CCN1C(=O)c1ccc2ncccc2c1 [Example 233, (R)-(2-(Difluoromethyl)-7-methyl-3-(3,4,5-trifluorophenyl)-2,4,5,7-tetrahydro-6H-pyrazolo[3,4-c]pyridin-6-yl)(quinolin-6-yl)methanone] | 550 |
| Cc1c(C(=O)N2CCc3c(nn(C)c3-c3ccccc3)C2)cccc1N1CCOCC1 [Example 19, (2-Methyl-3-morpholinophenyl)(2-methyl-3-phenyl-2,4,5,7-tetrahydro-6H-pyrazolo[3,4-c]pyridin-6-yl)methanone] | 4820 |
| COc1cncc(C(=O)N2CCc3c(nn(C)c3-c3cc(F)c(F)c(F)c3)[C@@H]2C)c1 [Example 203, (S)-(2,7-Dimethyl-3-(3,4,5-trifluorophenyl)-2,4,5,7-tetrahydro-6H-pyrazolo[3,4-c]pyridin-6-yl)(5-methoxypyridin-3-yl)methanone] | 67.5 |
| Cn1nc2c(c1-c1cc(F)cc(F)c1)CCN(C(=O)c1ccc3ncccc3c1)C2 [Example 101, (3-(3,5-Difluorophenyl)-2-methyl-2,4,5,7-tetrahydro-6H-pyrazolo[3,4-c]pyridin-6-yl)(quinolin-6-yl)methanone] | 52.4 |
| C[C@H]1c2nn(C)c(-c3cncc(F)c3)c2CCN1C(=O)c1ccc2nccnc2c1 [Example 109, (S)-(3-(5-Fluoropyridin-3-yl)-2,7-dimethyl-2,4,5,7-tetrahydro-6H-pyrazolo[3,4-c]pyridin-6-yl)(quinoxalin-6-yl)methanone] | 721 |
| C[C@H]1c2nn(C)c(-c3cc(F)c(F)c(F)c3)c2CCN1C(=O)c1cccc2c1ccn2C [Example 207, (S)-(2,7-dimethyl-3-(3,4,5-trifluorophenyl)-2,4,5,7-tetrahydro-6H-pyrazolo[3,4-c]pyridin-6-yl)(1-methyl-1H-indol-4-yl)methanone] | 0.22 |
| C[C@H]1c2nn(C)c(-c3cc(F)c(F)c(F)c3)c2CCN1C(=O)c1ccc2nccnc2c1 [Example 242, (S)-(2,7-Dimethyl-3-(3,4,5-trifluorophenyl)-2,4,5,7-tetrahydro-6H-pyrazolo[3,4-c]pyridin-6-yl)(quinoxalin-6-yl)methanone] | 22.3 |
| C[C@H]1c2nn(C)c(-c3cc(F)c(F)c(F)c3)c2CCN1C(=O)c1cccc(-n2cc(F)cn2)c1 [Example 275, [(7S)-2,7-Dimethyl-3-(3,4,5-trifluorophenyl)-5,7-dihydro-4H-pyrazolo[3,4-c]pyridin-6-yl]-[3-(4-fluoropyrazol-1-yl)phenyl]methanone] | 67.3 |
| C[C@H]1c2nn(C)c(-c3cccnc3)c2CCN1C(=O)c1ccc2nccnc2c1 [Example 108, (S)-(2,7-Dimethyl-3-(pyridin-3-yl)-2,4,5,7-tetrahydro-6H-pyrazolo[3,4-c]pyridin-6-yl)(quinoxalin-6-yl)methanone] | 1300 |
| CCc1nc(C(=O)N2CCc3c(nn(C)c3-c3cc(F)c(F)c(F)c3)[C@@H]2C)nn1-c1ccccc1 [Example 202, (S)-(2,7-Dimethyl-3-(3,4,5-trifluorophenyl)-2,4,5,7-tetrahydro-6H-pyrazolo[3,4-c]pyridin-6-yl)(5-ethyl-1-phenyl-1H-1,2,4-triazol-3-yl)methanone] | 7.39 |
| C[C@H]1c2nn(C)c(-c3cc(F)cc(F)c3)c2CCN1C(=O)c1ccccc1OCCF [Example 137, [(7S)-3-(3,5-Difluorophenyl)-2,7-dimethyl-5,7-dihydro-4H-pyrazolo[3,4-c]pyridin-6-yl]-[2-(2-fluoroethoxy)phenyl]methanone] | 240 |
| C[C@H]1c2nn(C)c(-c3cc(F)c(F)c(F)c3)c2CCN1C(=O)c1ccc2c(cnn2C)c1 [Example 211, (S)-(2,7-Dimethyl-3-(3,4,5-trifluorophenyl)-2,4,5,7-tetrahydro-6H-pyrazolo[3,4-c]pyridin-6-yl)(1-methyl-1H-indazol-5-yl)methanone] | 72.2 |
| COc1ccc(C(=O)N2CCc3c(nn(C)c3-c3cc(F)c(F)c(F)c3)[C@@H]2C)c(C)n1 [Example 306, [(7S)-2,7-Dimethyl-3-(3,4,5-trifluorophenyl)-5,7-dihydro-4H-pyrazolo[3,4-c]pyridin-6-yl]-(6-methoxy-2-methyl-3-pyridyl)methanone] | 189 |
| Cn1nc2c(c1-c1ccccc1)CCN(C(=O)c1n[nH]c3c(Cl)cccc13)C2 [Example 69, (7-Chloro-1H-indazol-3-yl)(2-methyl-3-phenyl-2,4,5,7-tetrahydro-6H-pyrazolo[3,4-c]pyridin-6-yl)methanone] | 662 |

— patent US11820766B2, “Monoacylglycerol lipase modulators” (Janssen Pharmaceutica NV, priority 2018, dated 2023)
